This note sets out measurements from article PMC8948829, “The Escherichia coli Amino Acid Uptake Protein CycA: Regulation of Its Synthesis and Practical Application in L-Isoleucine Production” (Microorganisms, 2022).

Structures are written as SMILES.

The test has as its target T1, CycA (Escherichia coli, UniProt P0AAE0).
T1 construct: full-length native 470 aa inner-membrane permease, chromosomal cycA overexpressed from PL promoter (strain M1, MG1655 cat-PL-cycA), whole cells
T1 sequence (P0AAE0 1-470): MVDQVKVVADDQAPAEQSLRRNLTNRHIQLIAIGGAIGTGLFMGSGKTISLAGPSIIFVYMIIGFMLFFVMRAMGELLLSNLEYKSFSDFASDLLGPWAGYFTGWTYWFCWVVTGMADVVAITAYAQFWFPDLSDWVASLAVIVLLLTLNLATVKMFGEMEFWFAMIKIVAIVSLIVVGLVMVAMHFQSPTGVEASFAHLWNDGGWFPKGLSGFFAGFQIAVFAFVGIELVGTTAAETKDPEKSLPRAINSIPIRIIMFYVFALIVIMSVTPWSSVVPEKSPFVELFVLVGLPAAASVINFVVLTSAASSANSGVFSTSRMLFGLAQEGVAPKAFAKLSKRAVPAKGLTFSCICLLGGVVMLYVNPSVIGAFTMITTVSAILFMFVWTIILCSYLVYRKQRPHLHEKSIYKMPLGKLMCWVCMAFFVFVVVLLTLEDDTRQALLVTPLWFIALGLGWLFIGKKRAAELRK
Description: amino acid uptake (extracellular depletion), cycA-overexpressing versus wild-type cells. It is filed as cell-based. Conditions: 50 mM, N-free M9 medium, 37 °C, 6 h; other native importers intact.

`CC[C@H](N)C(=O)O` [AABA]: the uptake rate result is “the uptake rate was higher in the case of the M1 strain, especially for Ala and AABA”.

For `C[C@H](N)C(=O)O` [Ala], the uptake rate result was “the uptake rate was higher in the case of the M1 strain, especially for Ala and AABA”.
